The record followed here is article PMC11881035, “^68Ga-Labeled Glycopeptides as Effective Tools for Liver Function Imaging” (Molecular Pharmaceutics, 2025).

Where a SMILES comes first, the peptide text is derived from it. The star is where a group is joined. X1 = O=C(CCCCc1cn([C@@H]2O[C@H](CO)[C@H](O)[C@H](O)[C@H]2O)nn1)*; NODAGA = O=C(O)CN1CCN(CC(=O)O)CCN(C(CCC(=O)*)C(=O)O)CC1; GABA = NCCCC(=O)O

The subject of this data set is healthy male C57BL6 mouse. As to the kind of experiment: PET/MR imaging in C57BL6 mice, time activity curves. It is filed as in vivo. The procedure:
The ^68Ge/^68Ga generator, devices for analytical HPLC, semipreparative HPLC, mass spectrometry, radio-thin layer chromatography, gamma counter and animal models for biodistribution and imaging studies including the image reconstruction procedures were the same as described before.[22] Stability assays in PBS and human blood serum, protein binding as well as determination of log D values followed established protocols.[25] Binding affinities (IC50) of selected ligands were determined in an isolated receptor-based assay according to a previously published procedure with minor modifications.[22] Dilutions of nonradioactive complexes were made with PBS + 0.1% BSA (10^–5–10^–12 M). Preparation of [^125I]I-Asialoorosomucoid which serves as the radioactive standard ligand has been published recently.[21]
Animal experiments were performed in accordance with the Austrian animal experiments law (BGBl. I Nr. 114/2012) and the institution’s animal welfare standards as approved by the Austrian Federal Ministry of Education, Science and Research (BMBWF, 2022–0.311.708). Imaging experiments were conducted at Werner Siemens Imaging Center (Tübingen, Germany) according to the German animal welfare act as approved by the local authorities (R5/19 G, R09/21 G). […]

For `NC(=O)CNC(=O)CNC(=O)[C@H](CCCCNC(=O)CCCCc1cn([C@@H]2O[C@H](CO)[C@H](O)[C@H](O)[C@H]2O)nn1)NC(=O)CNC(=O)CNC(=O)[C@H](CCCCNC(=O)CCCCc1cn([C@@H]2O[C@H](CO)[C@H](O)[C@H](O)[C@H]2O)nn1)NC(=O)CNC(=O)CNC(=O)[C@H](CCCCNC(=O)CCCCc1cn([C@@H]2O[C@H](CO)[C@H](O)[C@H](O)[C@H]2O)nn1)NC(=O)CNC(=O)CNC(=O)[C@H](CCCCNC(=O)CCCCc1cn([C@@H]2O[C@H](CO)[C@H](O)[C@H](O)[C@H]2O)nn1)NC(=O)CNC(=O)CNC(=O)[C@H](CCCCNC(=O)CCCCc1cn([C@@H]2O[C@H](CO)[C@H](O)[C@H](O)[C@H]2O)nn1)NC(=O)CNC(=O)CNC(=O)[C@H](CCCCNC(=O)CCCCc1cn([C@@H]2O[C@H](CO)[C@H](O)[C@H](O)[C@H]2O)nn1)NC(=O)CNC(=O)CNC(=O)[C@H](CCCCNC(=O)CCCCc1cn([C@@H]2O[C@H](CO)[C@H](O)[C@H](O)[C@H]2O)nn1)NC(=O)CNC(=O)CNC(=O)[C@H](CCCCNC(=O)CCCCc1cn([C@@H]2O[C@H](CO)[C@H](O)[C@H](O)[C@H]2O)nn1)NC(=O)CNC(=O)CNC(=O)[C@H](CCCCNC(=O)CCCCc1cn([C@@H]2O[C@H](CO)[C@H](O)[C@H](O)[C@H]2O)nn1)NC(=O)CCCNC(=O)CCC(C(=O)O)N1CCN(CC(=O)O)CCN(CC(=O)O)CC1` (some centres unmarked) [[^68Ga]Ga-NODAGA-NonaLysan, metal not drawn] ({NODAGA-GABA}-K(X1)GGK(X1)GGK(X1)GGK(X1)GGK(X1)GGK(X1)GGK(X1)GGK(X1)GGK(X1)GG-NH2), the “time of fast liver accumulation” value (PET/MR, C57BL6 mouse, 1 MBq (100 pmol)) was no more than 2 min. Further, the “time of rapid tracer accumulation in liver (time-activity curves)” value (followed by stable retention) is no more than 5 min.
